Data on 5 compounds can be found in patent US7128900B2, “Light-protection agents” (Merck Patent GmbH, priority 2002, dated 2006).

Where “and” joins values, the source holds several entries; their conditions need not be identical. Identical values can stand only once.

The nature of the data set: UV absorption spectrum (UV-VIS) in 2-propanol. In kind it is physicochemical. As to conditions: for UV-vis λmax: several maxima listed; for UV absorption maximum λ / ε at the UV absorption maximum: in 2-propanol. As to the method: The UV-VIS spectrum was measured on a Varian Cary 100 biospectrophotometer fitted with a heated cell holder (concentration=0.001 g/100 ml of 2-propanol; cell thickness d=1 cm; wavelength range: 200 to 800 nm).
The UV-VIS spectrum was measured on a Varian Cary 100 biospectrophotometer fitted with a heated cell holder (concentration=0.001 g/ 100 ml of 2-propanol; cell thickness d=1 cm; wavelength range: 200 to 800 nm).

`COc1cc(-c2cc(=O)c3cc(O)c(O)cc3o2)cc(OC)c1OC` [Example 5, 2-(3′,4′,5′-trimethoxyphenyl)-6,7-dihydroxy-4-oxo-4H-1-benzopyran]: the “UV-vis (e) at λmax 281 nm” value (2-propanol, 1 mg/100 ml, 281 nm) came to 8267. Moreover, the “UV-vis (e) at λmax 324 nm” value (2-propanol, 1 mg/100 ml, 324 nm) is 16036. For the setting “2-propanol, 1 mg/100 ml”, the “UV-vis λmax” value is 281 nm and 324 nm.
Turning to `COc1ccc(-c2cc(=O)c3cc(O)ccc3o2)cc1` [Example 1, 4′-methoxy-6-hydroxyflavone], the “UV absorption maximum λ” value was 322 nm and the “ε at the UV absorption maximum” value was found to be 24790.
Turning to `COc1ccc(-c2cc(=O)c3ccc(OC4O[C@H](CO)[C@@H](O)[C@H](O)[C@H]4O)cc3o2)cc1` (stereo partly drawn) [Example 4, 4′-methoxy-7-β-glucosidylflavone], the “UV absorption maximum λ” value was 318 nm and the “ε at the UV absorption maximum” value is 37185.
Consider `O=c1cc(-c2ccc(O)cc2)oc2ccc(O)cc12` [Example 6, 2-(4′-hydroxyphenyl)-6-hydroxy-4-oxo-4H-1-benzopyran], for which the “UV-vis (e) at λmax 228 nm” value (2-propanol, 1 mg/100 ml, 228 nm) came to 23068. Also, the “UV-vis (e) at λmax 277 nm” value (2-propanol, 1 mg/100 ml, 277 nm) was found to be 14805. Also, the “UV-vis (e) at λmax 328 nm” value (2-propanol, 1 mg/100 ml, 328 nm) is 30971. For the same compound, for the setting “2-propanol, 1 mg/100 ml”, the “UV-vis λmax” value was 228 nm and 277 nm and 328 nm.
Turning to `O=c1cc(-c2ccc(O)cc2)oc2cc(O)ccc12` [Example 3, 4′,7-dihydroxyflavone], the “UV absorption maximum λ” value is reported as 329 nm and the “ε at the UV absorption maximum” value came to 27960.
